In this series the target is p-glycoprotein (Homo sapiens, UniProt P08183).
Sequence of p-glycoprotein (P08183 whole entry): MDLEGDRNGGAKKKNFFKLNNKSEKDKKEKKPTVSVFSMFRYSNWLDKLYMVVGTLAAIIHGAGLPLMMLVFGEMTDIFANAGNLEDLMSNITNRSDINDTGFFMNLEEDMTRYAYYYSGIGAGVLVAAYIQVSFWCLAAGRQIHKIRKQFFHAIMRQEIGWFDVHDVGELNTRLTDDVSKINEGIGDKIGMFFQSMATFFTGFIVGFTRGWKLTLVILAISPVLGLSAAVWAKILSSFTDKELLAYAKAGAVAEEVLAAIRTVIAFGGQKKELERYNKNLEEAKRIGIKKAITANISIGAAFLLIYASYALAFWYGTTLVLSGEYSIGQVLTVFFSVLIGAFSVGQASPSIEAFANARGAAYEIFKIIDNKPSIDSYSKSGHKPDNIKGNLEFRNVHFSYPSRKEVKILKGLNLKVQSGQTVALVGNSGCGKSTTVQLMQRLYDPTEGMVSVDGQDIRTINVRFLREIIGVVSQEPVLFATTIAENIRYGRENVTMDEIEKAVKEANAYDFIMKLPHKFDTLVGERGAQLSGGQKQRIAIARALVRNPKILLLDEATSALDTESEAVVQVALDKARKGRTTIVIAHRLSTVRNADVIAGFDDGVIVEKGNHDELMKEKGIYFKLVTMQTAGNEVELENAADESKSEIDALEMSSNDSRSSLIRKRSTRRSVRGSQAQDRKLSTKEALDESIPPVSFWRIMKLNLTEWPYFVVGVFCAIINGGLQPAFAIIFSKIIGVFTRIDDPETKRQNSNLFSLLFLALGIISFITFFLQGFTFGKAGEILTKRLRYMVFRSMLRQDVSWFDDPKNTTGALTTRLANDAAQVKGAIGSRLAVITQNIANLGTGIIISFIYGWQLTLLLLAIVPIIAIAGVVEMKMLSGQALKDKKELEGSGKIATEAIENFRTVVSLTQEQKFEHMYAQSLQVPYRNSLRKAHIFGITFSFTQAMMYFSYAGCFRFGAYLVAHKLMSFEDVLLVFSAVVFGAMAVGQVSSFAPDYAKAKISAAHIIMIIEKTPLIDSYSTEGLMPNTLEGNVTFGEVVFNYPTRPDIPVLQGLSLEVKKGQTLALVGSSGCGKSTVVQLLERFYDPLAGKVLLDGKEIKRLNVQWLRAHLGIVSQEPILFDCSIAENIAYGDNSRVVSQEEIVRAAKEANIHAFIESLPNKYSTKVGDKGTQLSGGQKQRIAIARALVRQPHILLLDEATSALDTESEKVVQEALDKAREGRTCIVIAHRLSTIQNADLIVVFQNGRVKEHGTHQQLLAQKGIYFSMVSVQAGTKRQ

For the compound `CN(C)C(=O)CCSC(SCCC(=O)O)c1cccc(/C=C/c2ccc3ccc(Cl)cc3n2)c1` (stereo not shown) [MK 571], the “transport of rhodamine 123 from the apical to basolateral chamber in the presence of inhibitor” value is listed as “not”.

For the origin of these results see patent publication US9902940B2, “Human blood-brain barrier endothelial cells derived from pluripotent stem cells and blood-brain barrier model thereof” (Wisconsin Alumni Research Foundation, priority 2010, dated 2018).
